Assay results as given in PubChem BioAssay (NCI).
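These data come from cells grown in 96-well plates and exposed to compound for 48 hours at five concentrations. TGI marks complete inhibition of growth.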

Experiments:
Test in all cases: NCI tumour cell line growth inhibition, 48 h
786-0 renal = system: 786-0 renal
OVCAR-3 ovarian = system: OVCAR-3 ovarian
NCI-H226 lung = system: NCI-H226 lung
SF-539 CNS = system: SF-539 CNS
SNB-75 CNS = system: SNB-75 CNS
A549 NSCLC = system: A549 NSCLC
SN12C renal = system: SN12C renal
MDA-N = system: MDA-N
HL-60(TB) leukemia = system: HL-60(TB) leukemia
K-562 leukemia = system: K-562 leukemia
NCI-H23 lung = system: NCI-H23 lung
HCT-15 colon = system: HCT-15 colon
CCRF-CEM leukemia = system: CCRF-CEM leukemia
SF-268 CNS = system: SF-268 CNS
SNB-19 CNS = system: SNB-19 CNS
UACC-257 melanoma = system: UACC-257 melanoma
IGROV1 ovarian = system: IGROV1 ovarian
UO-31 renal = system: UO-31 renal
DU-145 prostate = system: DU-145 prostate
MCF7 breast = system: MCF7 breast
BT-549 breast = system: BT-549 breast
T-47D breast = system: T-47D breast
EKVX NSCLC = system: EKVX NSCLC
MDA-MB-231 breast = system: MDA-MB-231 breast
RPMI-8226 leukemia = system: RPMI-8226 leukemia
SK-MEL-5 melanoma = system: SK-MEL-5 melanoma
A498 renal = system: A498 renal
HT29 colon = system: HT29 colon
HS 578T breast = system: HS 578T breast
ACHN renal = system: ACHN renal
RXF 393 renal = system: RXF 393 renal
NCI-H460 lung = system: NCI-H460 lung
KM12 colon = system: KM12 colon
M14 melanoma = system: M14 melanoma
OVCAR-5 ovarian = system: OVCAR-5 ovarian
HCT-116 colon = system: HCT-116 colon
TK-10 renal = system: TK-10 renal
HOP-62 NSCLC = system: HOP-62 NSCLC
OVCAR-8 ovarian = system: OVCAR-8 ovarian
MOLT-4 leukemia = system: MOLT-4 leukemia
SF-295 CNS = system: SF-295 CNS
NCI/ADR-RES ovarian = system: NCI/ADR-RES ovarian
PC-3 prostate = system: PC-3 prostate
SK-MEL-2 melanoma = system: SK-MEL-2 melanoma
CAKI-1 renal = system: CAKI-1 renal
COLO 205 colon = system: COLO 205 colon
UACC-62 melanoma = system: UACC-62 melanoma
MALME-3M melanoma = system: MALME-3M melanoma
SK-OV-3 ovarian = system: SK-OV-3 ovarian
NCI-H522 lung = system: NCI-H522 lung
SK-MEL-28 melanoma = system: SK-MEL-28 melanoma
SR leukemia = system: SR leukemia
HCC-2998 colon = system: HCC-2998 colon
LOX IMVI melanoma = system: LOX IMVI melanoma
HOP-92 NSCLC = system: HOP-92 NSCLC
MDA-MB-435 = system: MDA-MB-435
OVCAR-4 ovarian = system: OVCAR-4 ovarian
SW-620 colon = system: SW-620 colon
U251 CNS = system: U251 CNS

Cc1ccc(Cl)c2c(=O)c3ccc(N)cc3sc12
TGI (786-0 renal): > 100 µM
TGI (OVCAR-3 ovarian): 47.7 µM
TGI (NCI-H226 lung): 48.4 µM
TGI (SF-539 CNS): 45.1 µM
TGI (SNB-75 CNS): 37.8 µM
TGI (A549 NSCLC): 85.3 µM
TGI (SN12C renal): 32.9 µM
TGI (MDA-N): > 100 µM
TGI (HL-60(TB) leukemia): 20.4 µM
TGI (K-562 leukemia): 48.6 µM
TGI (NCI-H23 lung): 97.4 µM
TGI (HCT-15 colon): 54.9 µM
TGI (CCRF-CEM leukemia): 50.4 µM
TGI (SF-268 CNS): > 100 µM
TGI (SNB-19 CNS): > 100 µM
TGI (UACC-257 melanoma): 90.7 µM
TGI (IGROV1 ovarian): 28.7 µM
TGI (UO-31 renal): 41.2 µM
TGI (DU-145 prostate): > 100 µM
TGI (MCF7 breast): 55.4 µM
TGI (BT-549 breast): > 100 µM
TGI (T-47D breast): 87.1 µM
TGI (EKVX NSCLC): 52.8 µM
TGI (MDA-MB-231 breast): 74.8 µM
TGI (RPMI-8226 leukemia): 42.3 µM
TGI (SK-MEL-5 melanoma): 37.7 µM
TGI (A498 renal): 36.8 µM
TGI (HT29 colon): 38.5 µM
TGI (HS 578T breast): 33.6 µM
TGI (ACHN renal): 57.5 µM
TGI (RXF 393 renal): 59.3 µM
TGI (NCI-H460 lung): > 100 µM
TGI (KM12 colon): 33.4 µM
TGI (M14 melanoma): > 100 µM
TGI (OVCAR-5 ovarian): > 100 µM
TGI (HCT-116 colon): 35.1 µM
TGI (TK-10 renal): > 100 µM
TGI (HOP-62 NSCLC): 52.8 µM
TGI (OVCAR-8 ovarian): 52.6 µM
TGI (MOLT-4 leukemia): 50 µM
TGI (SF-295 CNS): 31.8 µM
TGI (NCI/ADR-RES ovarian): 35 µM
TGI (PC-3 prostate): 76.7 µM
TGI (SK-MEL-2 melanoma): 44.6 µM
TGI (CAKI-1 renal): > 100 µM
TGI (COLO 205 colon): 37.5 µM
TGI (UACC-62 melanoma): 30.8 µM

CC1=C(CO)C2=C(C)C3(CC3)[C@@](C)(O)C(=O)C2=C1
TGI (786-0 renal): 0.474 µM
TGI (OVCAR-3 ovarian): 0.735 µM
TGI (NCI-H226 lung): 0.528 µM
TGI (SF-539 CNS): 0.371 µM
TGI (SNB-75 CNS): 0.473 µM
TGI (A549 NSCLC): 1.64 µM
TGI (SN12C renal): 5.21 µM
TGI (MDA-N): 3.25 µM
TGI (HL-60(TB) leukemia): 1.79 µM
TGI (K-562 leukemia): > 100 µM
TGI (NCI-H23 lung): 0.284 µM
TGI (HCT-15 colon): 5.17 µM
TGI (CCRF-CEM leukemia): > 28.6 µM
TGI (SF-268 CNS): 2.57 µM
TGI (MALME-3M melanoma): 0.494 µM
TGI (SNB-19 CNS): 10.6 µM
TGI (UACC-257 melanoma): 0.487 µM
TGI (IGROV1 ovarian): 0.529 µM
TGI (SK-OV-3 ovarian): 0.926 µM
TGI (MCF7 breast): 1.87 µM
TGI (NCI-H522 lung): 0.682 µM
TGI (T-47D breast): 2.48 µM
TGI (EKVX NSCLC): 0.535 µM
TGI (MDA-MB-231 breast): 1.34 µM
TGI (RPMI-8226 leukemia): > 81.6 µM
TGI (SK-MEL-5 melanoma): 0.374 µM
TGI (SK-MEL-28 melanoma): 1.44 µM
TGI (SR leukemia): > 100 µM
TGI (A498 renal): 0.507 µM
TGI (HCC-2998 colon): 0.329 µM
TGI (HT29 colon): 1.12 µM
TGI (HS 578T breast): 1.51 µM
TGI (ACHN renal): 1.52 µM
TGI (RXF 393 renal): 0.159 µM
TGI (LOX IMVI melanoma): 3.14 µM
TGI (HOP-92 NSCLC): 0.639 µM
TGI (KM12 colon): 2.81 µM
TGI (M14 melanoma): 0.698 µM
TGI (MDA-MB-435): 5.81 µM
TGI (OVCAR-5 ovarian): 0.553 µM
TGI (HCT-116 colon): 0.504 µM
TGI (TK-10 renal): 1.13 µM
TGI (OVCAR-4 ovarian): 0.703 µM
TGI (HOP-62 NSCLC): 0.4 µM
TGI (OVCAR-8 ovarian): 0.631 µM
TGI (NCI/ADR-RES ovarian): 0.698 µM
TGI (PC-3 prostate): 1.31 µM
TGI (SK-MEL-2 melanoma): 0.367 µM
TGI (SW-620 colon): > 30.4 µM
TGI (CAKI-1 renal): 0.76 µM
TGI (COLO 205 colon): 0.298 µM

CCSC1=N/C(=C\c2ccc(N(C)C)cc2)C(Cl)=N1
TGI (786-0 renal): > 100 µM
TGI (OVCAR-3 ovarian): > 100 µM
TGI (NCI-H226 lung): > 100 µM
TGI (U251 CNS): > 100 µM
TGI (SNB-75 CNS): > 100 µM
TGI (A549 NSCLC): > 100 µM
TGI (SN12C renal): > 100 µM
TGI (MDA-N): > 100 µM
TGI (HL-60(TB) leukemia): > 100 µM
TGI (NCI-H23 lung): > 100 µM
TGI (HCT-15 colon): > 100 µM
TGI (CCRF-CEM leukemia): > 100 µM
TGI (SF-268 CNS): > 100 µM
TGI (MALME-3M melanoma): > 100 µM
TGI (SNB-19 CNS): > 100 µM
TGI (UACC-257 melanoma): > 100 µM
TGI (IGROV1 ovarian): > 100 µM
TGI (UO-31 renal): > 100 µM
TGI (DU-145 prostate): > 100 µM
TGI (SK-OV-3 ovarian): > 100 µM
TGI (MCF7 breast): > 100 µM
TGI (NCI-H522 lung): > 100 µM
TGI (BT-549 breast): > 100 µM
TGI (T-47D breast): > 100 µM
TGI (EKVX NSCLC): > 100 µM
TGI (MDA-MB-231 breast): > 100 µM
TGI (RPMI-8226 leukemia): > 100 µM
TGI (SK-MEL-5 melanoma): > 100 µM
TGI (SK-MEL-28 melanoma): > 100 µM
TGI (A498 renal): > 100 µM
TGI (HCC-2998 colon): > 100 µM
TGI (HT29 colon): > 100 µM
TGI (HS 578T breast): > 100 µM
TGI (ACHN renal): > 100 µM
TGI (RXF 393 renal): > 100 µM
TGI (NCI-H460 lung): > 100 µM
TGI (HOP-92 NSCLC): > 100 µM
TGI (KM12 colon): > 100 µM
TGI (M14 melanoma): > 100 µM
TGI (MDA-MB-435): > 100 µM
TGI (OVCAR-5 ovarian): > 100 µM
TGI (HCT-116 colon): > 100 µM
TGI (TK-10 renal): > 100 µM
TGI (OVCAR-4 ovarian): > 100 µM
TGI (HOP-62 NSCLC): > 100 µM
TGI (OVCAR-8 ovarian): > 100 µM
TGI (MOLT-4 leukemia): > 100 µM
TGI (SF-295 CNS): > 100 µM
TGI (NCI/ADR-RES ovarian): > 100 µM
TGI (PC-3 prostate): > 100 µM
TGI (SK-MEL-2 melanoma): > 100 µM
TGI (SW-620 colon): > 100 µM
TGI (CAKI-1 renal): > 100 µM
TGI (COLO 205 colon): > 100 µM
TGI (UACC-62 melanoma): > 100 µM

CC1CN=C(N(C(=O)Nc2ccccc2)c2ccc(Cl)c(Cl)c2)S1 (stereo unspecified)
TGI (786-0 renal): 93.8 µM
TGI (OVCAR-3 ovarian): > 10 µM
TGI (U251 CNS): > 10 µM
TGI (SF-539 CNS): > 100 µM
TGI (SNB-75 CNS): > 100 µM
TGI (A549 NSCLC): > 100 µM
TGI (SN12C renal): 56.6 µM
TGI (MDA-N): > 10 µM
TGI (HL-60(TB) leukemia): > 100 µM
TGI (K-562 leukemia): > 10 µM
TGI (NCI-H23 lung): > 100 µM
TGI (HCT-15 colon): > 100 µM
TGI (CCRF-CEM leukemia): > 10 µM
TGI (SF-268 CNS): > 100 µM
TGI (MALME-3M melanoma): > 100 µM
TGI (SNB-19 CNS): > 100 µM
TGI (UACC-257 melanoma): > 100 µM
TGI (IGROV1 ovarian): > 100 µM
TGI (UO-31 renal): > 100 µM
TGI (DU-145 prostate): > 100 µM
TGI (SK-OV-3 ovarian): > 100 µM
TGI (MCF7 breast): > 100 µM
TGI (T-47D breast): > 100 µM
TGI (EKVX NSCLC): > 100 µM
TGI (MDA-MB-231 breast): > 100 µM
TGI (RPMI-8226 leukemia): > 100 µM
TGI (SK-MEL-5 melanoma): 34.5 µM
TGI (SK-MEL-28 melanoma): > 100 µM
TGI (SR leukemia): > 100 µM
TGI (A498 renal): 64.9 µM
TGI (HCC-2998 colon): 69.9 µM
TGI (HT29 colon): 78 µM
TGI (HS 578T breast): > 100 µM
TGI (ACHN renal): > 100 µM
TGI (LOX IMVI melanoma): 93.3 µM
TGI (NCI-H460 lung): 53.1 µM
TGI (HOP-92 NSCLC): 52.3 µM
TGI (KM12 colon): > 100 µM
TGI (M14 melanoma): > 100 µM
TGI (OVCAR-5 ovarian): > 100 µM
TGI (HCT-116 colon): > 100 µM
TGI (TK-10 renal): > 100 µM
TGI (OVCAR-4 ovarian): > 100 µM
TGI (HOP-62 NSCLC): > 100 µM
TGI (OVCAR-8 ovarian): > 100 µM
TGI (MOLT-4 leukemia): > 10 µM
TGI (SF-295 CNS): > 100 µM
TGI (NCI/ADR-RES ovarian): > 100 µM
TGI (PC-3 prostate): > 100 µM
TGI (SK-MEL-2 melanoma): 40.4 µM
TGI (SW-620 colon): > 100 µM
TGI (CAKI-1 renal): > 100 µM
TGI (COLO 205 colon): > 10 µM
